Results reported in publication PMC12122380 (2025).
One block for each compound: values may come before it.

What was measured:
[1] = tested on: Pepper (RNA, aptamer) GGCGCACUGGCGCUGCGCCUUCGGGCGCCAAUCGUAGCGUGUCGGCGCC; assay: AE-HPLC, FT-ICR mass spectrometry of covalent adduct; conditions: K+ 150 mM, Mg2+ 2 mM; covalent at G41; 50 mM MES pH 6.0, 37 °C; no crosslinking without Mg2+
[2] = tested on: Tt wt preQ1 RNA aptamer (RNA, riboswitch) CUGGGUCGCAGUAACCCCAGUUAACAAAACAAG; assay: AE-HPLC alkylation kinetics, Michaelis-Menten fit; conditions: K+ (KCl); covalent; apparent; MES pH 6.0, 37 °C
[3] = tested on: 155 nt (Szostak) self-biotinylating ribozyme (RNA, ribozyme) GGAGGCACCACGGCUGGAUCCGGUUUAUUAUCAUGAGCCCGACUCGGGCAGCACUGUACAUAAGCUCGGAUGCCAUAGUUUAGACACUAUGGACGUAAAGCCCAUGCUAGGCAAAGACAUUGACUGCAUGAGCGCCGCCUUGGUCAUUAGGAUCG; assay: PAGE, streptavidin blot of covalent adduct; conditions: K+ 100 mM, Mg2+ 5 mM, 50 mM HEPES pH 7.4, 37 °C, 1 mM or 50 µM ligand
[4] = tested on: Pepper (RNA, aptamer) GGCGCACUGGCGCUGCGCCUUCGGGCGCCAAUCGUAGCGUGUCGGCGCC; assay: fluorescence emission; conditions: K+ 100 mM, Mg2+ 2 mM; 50 mM MES pH 6.0; 0.5 µM RNA, 0.5 µM HBC; noncovalent
[5] = tested on: Tt C15U preQ1 RNA aptamer (RNA, riboswitch) CUGGGUCGCAGUAAUCCCAGUUAACAAAACAAG; assay: AE-HPLC of covalent adduct; conditions: K+ 100 mM, Mg2+ 2 mM, 50 mM MES pH 6.0, 37 °C, 48 h, 125 µM ligand
[6] = tested on: Pepper (RNA, aptamer) GGCGCACUGGCGCUGCGCCUUCGGGCGCCAAUCGUAGCGUGUCGGCGCC; assay: AE-HPLC of covalent adduct; conditions: K+ 150 mM, Mg2+ 2 mM, 50 mM MES pH 6.0, 15% DMSO, 37 °C, 50 µM ligand
[7] = tested on: Pepper (RNA, aptamer) GGCGCACUGGCGCUGCGCCUUCGGGCGCCAAUCGUAGCGUGUCGGCGCC; assay: covalent adduct formation, fluorescence; conditions: K+, Mg2+
[8] = tested on: 58 nt (Liu) self-biotinylating ribozyme (RNA, ribozyme) GGCCGCUCCAGAAGAGGGCCCCCUUGCCCGUUAUCGGGGGCUAGGCUCGAUGUCGGCC; assay: RP-HPLC of covalent adduct; conditions: K+ 100 mM, Mg2+ 5 mM, 50 mM HEPES pH 7.4, 37 °C, 2.5 mM ligand
[9] = tested on: 58 nt (Liu) self-biotinylating ribozyme (RNA, ribozyme) GGCCGCUCCAGAAGAGGGCCCCCUUGCCCGUUAUCGGGGGCUAGGCUCGAUGUCGGCC; assay: PAGE, streptavidin blot of covalent adduct; conditions: K+ 100 mM, Mg2+ 5 mM, 50 mM HEPES pH 7.4, 37 °C, 1 mM ligand, 5 h

SMILES: CN(CCCOS(C)(=O)=O)c1ccc(/C=C(\C#N)c2ccc(C#N)cc2)cc1
- binding [1]: yes

SMILES: Nc1nc(N)c2c(CNCCCBr)c[nH]c2n1
- KM [2]: 0.162 ± 0.016 µM

SMILES: Nc1nc2[nH]cc(CNCCCBr)c2c(=O)[nH]1
- binding [5]: yes

SMILES: CN(CCCBr)c1ccc(/C=C(\C#N)c2ccc(C#N)cc2)cc1
- binding [6]: yes

Further lines, results first:

- binding [3]: yes
SMILES: O=C(CI)NCCNC(=O)CCCC[C@@H]1SC[C@@H]2NC(=O)N[C@@H]21

- binding [4]: yes
SMILES: CN(CCO)c1ccc(/C=C(\C#N)c2ccc(C#N)cc2)cc1

- binding [7]: yes
SMILES: C=Cc1ccc(/C(C#N)=C/c2ccc(N(C)CCCOS(C)(=O)=O)cc2)cc1

- binding [8]: yes
- binding [9]: yes
SMILES: O=C1N[C@H]2[C@H](CS[C@H]2CCCCC(=O)OCCOCCCCBr)N1
